Data published in publication PMC6256987, “Investigating the Activity Spectrum for Ring-Substituted 8-Hydroxyquinolines” (Molecules, 2010).
In brackets after ≈: the same amount, converted by molar mass. Several values for one entry are separate records, joined by “and”; a condition that tells them apart may be missing. Equal values may be shown once. Read-outs that look alike come from different tables or passages of the source.

Experiments:
[1] = system: Trichosporon beigelii 1188; assay: In vitro antifungal broth microdilution test; format: cell-based; details: Trichosporon beigelii, 1188, 35 °C, RPMI 1640 pH 7.0, CLSI M27-A2 (IC80 value), read-out: MIC TB
Experimental: Fluconazole (FLU) was used as the standard of a clinically used antimycotic drug. The procedure was performed with twofold dilution of the compounds in RPMI 1640 (Sevapharma a.s., Prague, Czech Republic) buffered to pH 7.0 with 0.165 mol of 3-morpholino-propane-1-sulfonic acid (MOPS, Sigma, Germany). The final concentrations of the compounds ranged from 500 to 0.975 μmol/L. Drug–free controls were included. The MIC determination was performed according to the CLSI (formerly NCCLS) reference protocol M27-A2 for yeasts (IC80 value) and M38-A for moulds (IC50 value). […] The values of MICs were determined after 24 and 48 h of static incubation at 35 °C. For T. mentagrophytes, the final MICs were determined after 72 and 120 h of incubation.

[2] = system: Candida tropicalis 156; assay: In vitro antifungal broth microdilution test; format: cell-based; details: Candida tropicalis, 156, 35 °C, RPMI 1640 pH 7.0, CLSI M27-A2 (IC80 value)
[3] = system: Candida glabrata 20/I; assay: In vitro antifungal broth microdilution test; format: cell-based; details: Nakaseomyces glabratus, 20/I, 35 °C, RPMI 1640 pH 7.0, CLSI M27-A2 (IC80 value)
[4] = system: Absidia corymbifera 272; assay: In vitro antifungal broth microdilution test; format: cell-based; details: Lichtheimia corymbifera, 272, 35 °C, RPMI 1640 pH 7.0, CLSI M38-A (IC50 value)
[5] = system: Trichophyton mentagrophytes 445; assay: In vitro antifungal broth microdilution test; format: cell-based
[6] = system: Mycobacterium avium complex CIT19/06; assay: In vitro antimycobacterial evaluation (alamarBlue, 96 well plate); format: cell-based; details: 120 h, Middlebrook broth, 37 °C 5 days, read-out: MIC/IC90 M. avium complex
[7] = system: Candida albicans ATCC 44859; assay: In vitro antifungal broth microdilution test; format: cell-based; details: Candida albicans, ATCC44859, 35 °C, RPMI 1640 pH 7.0, CLSI M27-A2 (IC80 value)
[8] = system: photosynthetic electron transport (PET) in spinach chloroplasts; assay: Inhibition of photosynthetic electron transport (PET) in spinach chloroplasts, DCPIP photoreduction; format: biochemical, Spinacia oleracea L.; details: DCPIP as electron acceptor, phosphate buffer pH 7.2, read-out: PET reduction IC50
Experimental: Chloroplasts were prepared from spinach (Spinacia oleracea L.) according to Masarovicova and Kralova. The inhibition of photosynthetic electron transport (PET) in spinach chloroplasts was determined spectrophotometrically (Genesys 6, Thermo Scientific, USA) using an artificial electron acceptor 2,6-dichlorophenol-indophenol (DCIPP) according to Kralova et al. and the rate of photosynthetic electron transport was monitored as a photoreduction of DCPIP. The measurements were carried out in phosphate buffer (0.02 mol/L, pH 7.2) containing sucrose (0.4 mol/L), MgCl2 (0.005 mol/L) and NaCl (0.015 mol/L). The chlorophyll content was 30 mg/L in these experiments and the samples were irradiated (~100 W/m^2) from 10 cm distance with a halogen lamp (250 W) using a 4 cm water filter to prevent warming of the samples (suspension temperature 22 °C). The studied compounds were dissolved in DMSO due to their limited water solubility. […] The inhibitory efficiency of the studied compounds was expressed by IC50 values, i.e., by molar concentration of the compounds causing 50% decrease in the oxygen evolution rate relative to the untreated control.

[9] = system: Candida krusei ATCC 6258; assay: In vitro antifungal broth microdilution test; format: cell-based; details: Pichia kudriavzevii, ATCC6258, 35 °C, RPMI 1640 pH 7.0, CLSI M27-A2 (IC80 value)
[10] = system: M. kansasii CIT11/06; assay: In vitro antimycobacterial evaluation (alamarBlue, 96 well plate); format: cell-based; details: Mycobacterium kansasii, CIT11/06, 120 h, Middlebrook broth, 37 °C 5 days, read-out: MIC/IC90 M. kansasii
[11] = system: M. absessus CIT21/06; assay: as above; format: cell-based; details: Middlebrook broth, 37 °C overnight, read-out: MIC/IC90 M. absessus
[12] = Lipophilicity determination by RP-HPLC (capacity factor k / log k); format: physicochemical; details: C18 column, isocratic MeOH 55.0% / H2O 45.0%
Text: A Waters Alliance 2695 XE HPLC separation module and Waters Photodiode Array Detector 2996 (Waters Corp., Milford, MA, USA) were used. A Symmetry® C18 5 μm, 4.6 × 250 mm, Part No. WAT054275, (Waters Corp., Milford, MA, USA) chromatographic column was used. The HPLC separation process was monitored by Millennium32® Chromatography Manager Software, Waters 2004 (Waters Corp., Milford, MA, USA). A mixture of MeOH p.a. (55.0%) and H2O-HPLC– Mili-Q Grade (45.0%) was used as a mobile phase. The total flow of the column was 0.9 mL/min, injection 30 μL, column temperature 30 °C and sample temperature 10 °C. The detection wavelength 210 nm was chosen. The KI methanolic solution was used for the dead time (tD) determination. Retention times (tR) were measured in minutes.
The capacity factors k were calculated using the Millennium32® Chromatography Manager Software according to formula k = (tR - tD)/tD, where tR is the retention time of the solute, whereas tD denotes the dead time obtained via an unretained analyte. Log k, calculated from the capacity factor k, is used as the lipophilicity index converted to log P scale.

[13] = system: M. smegmatis MC2155; assay: In vitro antimycobacterial evaluation (alamarBlue, 96 well plate); format: cell-based; details: Mycolicibacterium smegmatis, Middlebrook broth, 37 °C overnight, read-out: MIC/IC90 M. smegmatis
[14] = system: Aspergillus fumigatus 231; assay: In vitro antifungal broth microdilution test; format: cell-based; details: Aspergillus fumigatus, 231, 35 °C, RPMI 1640 pH 7.0, CLSI M38-A (IC50 value)
[15] = system: photosynthetic electron transport (PET) in spinach chloroplasts; set-up: method as in earlier work; details: standard, read-out: PET reduction IC50; cited from earlier work
[16] = Trichophyton mentagrophytes, 445, 120 h, pH 7
[17] = Trichophyton mentagrophytes, 445, 72h, RPMI 1640 pH 7.0, CLSI M38-A (IC50 value)

| SMILES | MIC ([1]; 24h) [µM] | MIC ([1]; 48h) [µM] | MIC ([2]; 24h) [µM] | MIC ([2]; 48h) [µM] | MIC ([3]; 24h) [µM] | MIC ([3]; 48h) [µM] | MIC ([4]; 24h) [µM] | MIC ([4]; 48h) [µM] | MIC [5, 16] [µM] | MIC [5, 17] [µM] | MIC [6] [µg/mL] | MIC ([7]; 24h) [µM] | MIC ([7]; 48h) [µM] | IC50 [8] [µM] | MIC ([9]; 24h) [µM] | MIC ([9]; 48h) [µM] | MIC [10] [µg/mL] | MIC [11] [µg/mL] | log k [12] | MIC [13] [µg/mL] | also measured |
| --- | --- | --- | --- | --- | --- | --- | --- | --- | --- | --- | --- | --- | --- | --- | --- | --- | --- | --- | --- | --- | --- |
| Oc1c(Cl)cc(Cl)c2ccc(C=Cc3ccc(C=Cc4ccc5c(Cl)cc(Cl)c(O)c5n4)cc3)nc12 [Compound 14, 5,7-Dichloro-2-(2-{4-[2-(5,7-dichloro-8-hydroxyquinolin-2-yl)vinyl]phenyl}vinyl)quinolin-8-ol] | 3.9 (≈ 2.16 µg/mL) | 15.6 (≈ 8.66 µg/mL) | 1.95 (≈ 1.08 µg/mL) | 7.81 (≈ 4.33 µg/mL) | 0.49 (≈ 0.272 µg/mL) | 1.95 (≈ 1.08 µg/mL) | 15.6 (≈ 8.66 µg/mL) | 31.2 (≈ 17.3 µg/mL) | 7.81 (≈ 4.33 µg/mL) | 3.9 (≈ 2.16 µg/mL) | > 300 | 0.98 (≈ 0.543 µg/mL) | 3.9 (≈ 2.16 µg/mL) | 334 | 0.98 (≈ 0.543 µg/mL) | 1.95 (≈ 1.08 µg/mL) | 40 (≈ 72.2 µM) | 130 (≈ 235 µM) | 2.5760 | 40 (≈ 72.2 µM) | MIC ([14]; 24h): 3.9 µM (≈ 2.16 µg/mL); MIC ([14]; 48h): 15.6 µM (≈ 8.66 µg/mL) |
| Oc1ccc(C=Cc2ccc3c(Cl)cc(Cl)c(O)c3n2)cc1 [Compound 10, 5,7-Dichloro-2-[2-(4-hydroxyphenyl)vinyl]quinolin-8-ol] | 125 (≈ 41.5 µg/mL) | > 125 | 125 (≈ 41.5 µg/mL) | > 125 | 125 (≈ 41.5 µg/mL) | > 125 | 31.2 (≈ 10.4 µg/mL) | 62.5 (≈ 20.8 µg/mL) | 62.5 (≈ 20.8 µg/mL) | 15.6 (≈ 5.19 µg/mL) | > 300 | 125 (≈ 41.5 µg/mL) | > 125 | 660 | 125 (≈ 41.5 µg/mL) | > 125 | > 300 | > 300 | 1.5866 | 150 (≈ 452 µM) | MIC ([14]; 24h): 125 µM (≈ 41.5 µg/mL); MIC ([14]; 48h): 125 µM (≈ 41.5 µg/mL) |
| NNC(=O)c1ccncc1 [INH, isoniazid, reference compound] |  |  |  |  |  |  |  |  |  |  | < 10 |  |  |  |  |  | < 10 | > 100 |  | 39 (≈ 284 µM) |  |
| CN(C)C(=O)Nc1ccc(Cl)c(Cl)c1 [DCMU, 3-(3,4-dichlorophenyl)-1,1-dimethylurea] |  |  |  |  |  |  |  |  |  |  |  |  |  |  |  |  |  |  |  |  | IC50 [15]: ~1.9 µM and 1.9 µM |
| CC(=O)Oc1ccc(O)c(C=Cc2ccc3c(Cl)cc(Cl)c(O)c3n2)c1 [Compound 13, 5,7-Dichloro-2-[2-(2-hydroxy-5-acetoxyphenyl)vinyl]quinolin-8-ol] |  |  |  |  |  |  |  |  |  |  | > 300 |  |  |  |  |  | > 300 | > 300 | 1.5864 | 100 (≈ 256 µM) |  |
| Oc1cc(O)cc(C=Cc2ccc3c(Cl)cc(Cl)c(O)c3n2)c1 [Compound 12, 5,7-Dichloro-2-[2-(3,5-dihydroxyphenyl)vinyl]quinolin-8-ol] | > 125 | > 125 | > 125 | > 125 | > 125 | > 125 | 62.5 (≈ 21.8 µg/mL) | 62.5 (≈ 21.8 µg/mL) | 15.6 (≈ 5.44 µg/mL) | 15.6 (≈ 5.44 µg/mL) | > 300 | > 125 | > 125 | 341 | > 125 | > 125 | > 300 | > 300 | 1.5867 | > 100 | MIC ([14]; 24h): 125 µM (≈ 43.5 µg/mL); MIC ([14]; 48h): 125 µM (≈ 43.5 µg/mL) |
| NC(=O)c1cnccn1 [PZA, pyrazinamide, reference compound] |  |  |  |  |  |  |  |  |  |  | > 100 |  |  |  |  |  | > 100 | > 100 |  | > 100 |  |
| Oc1ccc(C=Cc2ccc3c(Cl)cc(Cl)c(O)c3n2)c(O)c1 [Compound 11, 5,7-Dichloro-2-[2-(2,4-dihydroxyphenyl)vinyl]quinolin-8-ol] |  |  |  |  |  |  |  |  |  |  | > 100 |  |  |  |  |  | > 100 | > 100 | 1.5858 | 100 (≈ 287 µM) |  |
